Assay results published in the NIST ThermoML archive (doi:10.1021/je0301040).

Assay: xn = mol fraction of the nth substance listed

FC(Cl)(Cl)Cl [trichlorofluoromethane] + FC(F)Cl
Details | mass density [kg/m3]
230 K, 25860 kPa, Liquid, Pycnometric method, x1 = 0.8336 | 1641.63
230.01 K, 668.5 kPa, Liquid, Pycnometric method, x1 = 0.8336 | 1604.47
230.01 K, 1004 kPa, Liquid, Pycnometric method, x1 = 0.8336 | 1605.02
230.01 K, 2033.3 kPa, Liquid, Pycnometric method, x1 = 0.8336 | 1606.97
230.01 K, 2374.4 kPa, Liquid, Pycnometric method, x1 = 0.8336 | 1607.47
230.01 K, 2689.9 kPa, Liquid, Pycnometric method, x1 = 0.8336 | 1608.01
230.01 K, 3067 kPa, Liquid, Pycnometric method, x1 = 0.8336 | 1608.63
230.01 K, 3637.3 kPa, Liquid, Pycnometric method, x1 = 0.8336 | 1609.58
230.01 K, 12707 kPa, Liquid, Pycnometric method, x1 = 0.8336 | 1623.4
230.01 K, 65252 kPa, Liquid, Pycnometric method, x1 = 0.8336 | 1686.03
230.02 K, 1691.3 kPa, Liquid, Pycnometric method, x1 = 0.8336 | 1606.39
230.02 K, 38513 kPa, Liquid, Pycnometric method, x1 = 0.8336 | 1657.76
230.02 K, 51629 kPa, Liquid, Pycnometric method, x1 = 0.8336 | 1672.95
232.01 K, 344.5 kPa, Liquid, isochoric method, x1 = 0.832 | 1585.93
232.01 K, 367.9 kPa, Liquid, isochoric method, x1 = 0.832 | 1585.93
233.01 K, 1630.1 kPa, Liquid, isochoric method, x1 = 0.832 | 1585.8
234.01 K, 2889.9 kPa, Liquid, isochoric method, x1 = 0.832 | 1585.67
245.01 K, 363.7 kPa, Liquid, isochoric method, x1 = 0.832 | 1556.16
246.5 K, 2106.6 kPa, Liquid, isochoric method, x1 = 0.832 | 1555.98
248 K, 3843.5 kPa, Liquid, isochoric method, x1 = 0.832 | 1555.8
248 K, 3865.5 kPa, Liquid, isochoric method, x1 = 0.832 | 1555.8
248.01 K, 3870.3 kPa, Liquid, isochoric method, x1 = 0.832 | 1555.8
249 K, 4990.8 kPa, Liquid, isochoric method, x1 = 0.832 | 1555.68
264.5 K, 1262.1 kPa, Liquid, isochoric method, x1 = 0.832 | 1513.38
266.5 K, 3302.5 kPa, Liquid, isochoric method, x1 = 0.832 | 1513.15
268 K, 4830.1 kPa, Liquid, isochoric method, x1 = 0.832 | 1512.98
268 K, 4846.4 kPa, Liquid, isochoric method, x1 = 0.832 | 1512.98
269.99 K, 2096.8 kPa, Liquid, Pycnometric method, x1 = 0.8336 | 1502.82
269.99 K, 21561 kPa, Liquid, Pycnometric method, x1 = 0.8336 | 1541.21
269.99 K, 41933 kPa, Liquid, Pycnometric method, x1 = 0.8336 | 1573.88
270 K, 378 kPa, Liquid, Pycnometric method, x1 = 0.8336 | 1498.95
270 K, 696 kPa, Liquid, Pycnometric method, x1 = 0.8336 | 1499.67
270 K, 1081 kPa, Liquid, Pycnometric method, x1 = 0.8336 | 1500.54
270 K, 1383.8 kPa, Liquid, Pycnometric method, x1 = 0.8336 | 1501.23
270 K, 1742 kPa, Liquid, Pycnometric method, x1 = 0.8336 | 1502.02
270 K, 2410 kPa, Liquid, Pycnometric method, x1 = 0.8336 | 1503.54
270 K, 2708.1 kPa, Liquid, Pycnometric method, x1 = 0.8336 | 1504.16
270 K, 3130 kPa, Liquid, Pycnometric method, x1 = 0.8336 | 1505.05
270 K, 3854.5 kPa, Liquid, Pycnometric method, x1 = 0.8336 | 1506.62
270 K, 7625.3 kPa, Liquid, Pycnometric method, x1 = 0.8336 | 1514.59
270 K, 14726 kPa, Liquid, Pycnometric method, x1 = 0.8336 | 1528.68
270 K, 27467 kPa, Liquid, Pycnometric method, x1 = 0.8336 | 1551.32
270 K, 35271 kPa, Liquid, Pycnometric method, x1 = 0.8336 | 1563.81
270 K, 48894 kPa, Liquid, Pycnometric method, x1 = 0.8336 | 1583.8
270 K, 55535 kPa, Liquid, Pycnometric method, x1 = 0.8336 | 1592.86
270 K, 62211 kPa, Liquid, Pycnometric method, x1 = 0.8336 | 1601.52
288 K, 932.5 kPa, Liquid, isochoric method, x1 = 0.832 | 1464.29
290 K, 2670 kPa, Liquid, isochoric method, x1 = 0.832 | 1464.09
293 K, 5258.3 kPa, Liquid, isochoric method, x1 = 0.832 | 1463.78
293 K, 5259.5 kPa, Liquid, isochoric method, x1 = 0.832 | 1463.78
298.14 K, 1069.1 kPa, Liquid, Pycnometric method, x1 = 0.8336 | 1439.09
298.14 K, 1772.4 kPa, Liquid, Pycnometric method, x1 = 0.8336 | 1441.18
298.14 K, 2113.1 kPa, Liquid, Pycnometric method, x1 = 0.8336 | 1442.22
298.14 K, 2728.2 kPa, Liquid, Pycnometric method, x1 = 0.8336 | 1444.75
298.14 K, 3032.4 kPa, Liquid, Pycnometric method, x1 = 0.8336 | 1445.59
298.14 K, 21180 kPa, Liquid, Pycnometric method, x1 = 0.8336 | 1490.62
298.14 K, 49069 kPa, Liquid, Pycnometric method, x1 = 0.8336 | 1542.62
298.14 K, 63135 kPa, Liquid, Pycnometric method, x1 = 0.8336 | 1564.13
298.15 K, 390.2 kPa, Liquid, Pycnometric method, x1 = 0.8336 | 1436.97
298.15 K, 717.7 kPa, Liquid, Pycnometric method, x1 = 0.8336 | 1438.05
298.15 K, 1383.5 kPa, Liquid, Pycnometric method, x1 = 0.8336 | 1440.04
298.15 K, 2381.3 kPa, Liquid, Pycnometric method, x1 = 0.8336 | 1443.01
298.15 K, 2409.4 kPa, Liquid, Pycnometric method, x1 = 0.8336 | 1443.8
298.15 K, 3541.1 kPa, Liquid, Pycnometric method, x1 = 0.8336 | 1447.03
298.15 K, 7060.4 kPa, Liquid, Pycnometric method, x1 = 0.8336 | 1456.68
298.15 K, 14256 kPa, Liquid, Pycnometric method, x1 = 0.8336 | 1474.84
298.15 K, 27634 kPa, Liquid, Pycnometric method, x1 = 0.8336 | 1504
298.15 K, 35295 kPa, Liquid, Pycnometric method, x1 = 0.8336 | 1518.86
298.15 K, 42224 kPa, Liquid, Pycnometric method, x1 = 0.8336 | 1531.13
298.15 K, 56475 kPa, Liquid, Pycnometric method, x1 = 0.8336 | 1554.44
298.15 K, 67870 kPa, Liquid, Pycnometric method, x1 = 0.8336 | 1570.81
305.99 K, 2209.4 kPa, Liquid, isochoric method, x1 = 0.832 | 1419.96
305.99 K, 2209.7 kPa, Liquid, isochoric method, x1 = 0.832 | 1419.96
308.99 K, 4508.6 kPa, Liquid, isochoric method, x1 = 0.832 | 1419.67
311.99 K, 6798.4 kPa, Liquid, isochoric method, x1 = 0.832 | 1419.39
311.99 K, 6800.1 kPa, Liquid, isochoric method, x1 = 0.832 | 1419.39
319.98 K, 1419.4 kPa, Liquid, Pycnometric method, x1 = 0.8336 | 1381.39
319.98 K, 2419.9 kPa, Liquid, Pycnometric method, x1 = 0.8336 | 1385.12
319.99 K, 690.7 kPa, Liquid, Pycnometric method, x1 = 0.8336 | 1378.66
319.99 K, 1087.6 kPa, Liquid, Pycnometric method, x1 = 0.8336 | 1380.16
319.99 K, 1721.1 kPa, Liquid, Pycnometric method, x1 = 0.8336 | 1382.53
319.99 K, 2054.4 kPa, Liquid, Pycnometric method, x1 = 0.8336 | 1383.74
319.99 K, 2726 kPa, Liquid, Pycnometric method, x1 = 0.8336 | 1386.19
319.99 K, 3165.8 kPa, Liquid, Pycnometric method, x1 = 0.8336 | 1387.81
319.99 K, 3805.2 kPa, Liquid, Pycnometric method, x1 = 0.8336 | 1390.08
319.99 K, 7368.4 kPa, Liquid, Pycnometric method, x1 = 0.8336 | 1402.12
319.99 K, 13993 kPa, Liquid, Pycnometric method, x1 = 0.8336 | 1422.16
319.99 K, 20936 kPa, Liquid, Pycnometric method, x1 = 0.8336 | 1440.83
319.99 K, 27630 kPa, Liquid, Pycnometric method, x1 = 0.8336 | 1456.91
319.99 K, 35180 kPa, Liquid, Pycnometric method, x1 = 0.8336 | 1473.5
319.99 K, 42218 kPa, Liquid, Pycnometric method, x1 = 0.8336 | 1486.74
319.99 K, 49603 kPa, Liquid, Pycnometric method, x1 = 0.8336 | 1501.44
319.99 K, 56549 kPa, Liquid, Pycnometric method, x1 = 0.8336 | 1513.51
319.99 K, 62595 kPa, Liquid, Pycnometric method, x1 = 0.8336 | 1523.41
319.99 K, 66514 kPa, Liquid, Pycnometric method, x1 = 0.8336 | 1534.42
325.99 K, 1939.3 kPa, Liquid, isochoric method, x1 = 0.832 | 1362.85
328.99 K, 3911.9 kPa, Liquid, isochoric method, x1 = 0.832 | 1362.59
331.99 K, 5879.8 kPa, Liquid, isochoric method, x1 = 0.832 | 1362.33
331.99 K, 5890.5 kPa, Liquid, isochoric method, x1 = 0.832 | 1362.33
349.98 K, 353.7 kPa, Gas, isochoric method, x1 = 0.832 | 131.816
349.98 K, 1087.3 kPa, Liquid, Pycnometric method, x1 = 0.8336 | 1291.23
349.98 K, 1418.4 kPa, Liquid, Pycnometric method, x1 = 0.8336 | 1293.05
349.98 K, 1769.1 kPa, Liquid, Pycnometric method, x1 = 0.8336 | 1294.97
349.98 K, 2081.3 kPa, Liquid, Pycnometric method, x1 = 0.8336 | 1296.63
349.98 K, 2408.9 kPa, Liquid, Pycnometric method, x1 = 0.8336 | 1298.31
349.98 K, 2747.4 kPa, Liquid, Pycnometric method, x1 = 0.8336 | 1300.08
349.98 K, 3091.9 kPa, Liquid, Pycnometric method, x1 = 0.8336 | 1301.88
349.98 K, 7457.3 kPa, Liquid, Pycnometric method, x1 = 0.8336 | 1322.34
349.98 K, 14287 kPa, Liquid, Pycnometric method, x1 = 0.8336 | 1349.36
349.98 K, 20907 kPa, Liquid, Pycnometric method, x1 = 0.8336 | 1371.66
349.98 K, 35596 kPa, Liquid, Pycnometric method, x1 = 0.8336 | 1412.26
349.98 K, 42532 kPa, Liquid, Pycnometric method, x1 = 0.8336 | 1428.61
349.98 K, 49571 kPa, Liquid, Pycnometric method, x1 = 0.8336 | 1443.89
349.98 K, 56566 kPa, Liquid, Pycnometric method, x1 = 0.8336 | 1457.8
349.98 K, 62677 kPa, Liquid, Pycnometric method, x1 = 0.8336 | 1469.23
349.99 K, 3577.6 kPa, Liquid, Pycnometric method, x1 = 0.8336 | 1304.32
349.99 K, 27703 kPa, Liquid, Pycnometric method, x1 = 0.8336 | 1391.72
349.99 K, 68231 kPa, Liquid, Pycnometric method, x1 = 0.8336 | 1479.1
351.98 K, 3607.1 kPa, Liquid, isochoric method, x1 = 0.832 | 1298.78
354.98 K, 5239.3 kPa, Liquid, isochoric method, x1 = 0.832 | 1298.54
357.98 K, 6868 kPa, Liquid, isochoric method, x1 = 0.832 | 1298.31
357.98 K, 6868.5 kPa, Liquid, isochoric method, x1 = 0.832 | 1298.31
357.98 K, 6872.5 kPa, Liquid, isochoric method, x1 = 0.832 | 1298.31
357.98 K, 6876.5 kPa, Liquid, isochoric method, x1 = 0.832 | 1298.31
374.97 K, 140.1 kPa, Fluid (supercritical or subcritical phases), Burnett expansion method, x1 = 0.832 | 5.9076
374.97 K, 155.55 kPa, Fluid (supercritical or subcritical phases), Burnett expansion method, x1 = 0.832 | 6.5788
374.97 K, 572.06 kPa, Fluid (supercritical or subcritical phases), Burnett expansion method, x1 = 0.832 | 25.934
374.97 K, 705.75 kPa, Fluid (supercritical or subcritical phases), Burnett expansion method, x1 = 0.832 | 32.8139
374.97 K, 712.23 kPa, Fluid (supercritical or subcritical phases), Burnett expansion method, x1 = 0.832 | 33.1519
374.97 K, 775.25 kPa, Fluid (supercritical or subcritical phases), Burnett expansion method, x1 = 0.832 | 36.5414
374.97 K, 2140.4 kPa, Liquid, Pycnometric method, x1 = 0.8336 | 1209.34
374.97 K, 2454.5 kPa, Liquid, Pycnometric method, x1 = 0.8336 | 1211.8
374.97 K, 2781.1 kPa, Liquid, Pycnometric method, x1 = 0.8336 | 1214.3
